Patent EP0791603A2, “Pure somatostatin antagonist and methods of use thereof” (American Cyanamid Company, priority 1996, dated 1997)
Positions of bridges follow the written chain, without caps; N, C: chain ends. Non-standard residues stand in square brackets, D forms with d. Residues, ends and D or L forms follow the SMILES beside them. NMePhe(4-NO2) = CN[C@@H](Cc1ccc([N+](=O)[O-])cc1)C(=O)O; Phe(4-NO2) = N[C@@H](Cc1ccc([N+](=O)[O-])cc1)C(=O)O; 2Nal = N[C@@H](Cc1ccc2ccccc2c1)C(=O)O; d2Nal = N[C@H](Cc1ccc2ccccc2c1)C(=O)O; Abu = CC[C@H](N)C(=O)O

Experiments:
[1] = molecular target: T1, rat somatostatin receptor subtype 2 (SSTR2) (Rattus norvegicus, UniProt P30680); experiment: Yeast assay, somatostatin antagonist activity (zone of no growth in presence of S-14); type: cell-based; set-up: key: 1 is minimum antagonist activity; 5 is maximum antagonist activity; -: When no activity is observed, the result is indicated by a dash; settings: rating on a scale of 1-5 from zone of no growth; 5µL of 1 mg/mL S-14 added to each plate; S. Cerevisiae LY364
T1 construct: expressed in transfected cells; host or cells: Saccharomyces cerevisiae LY364
Description: To evaluate the somatostatin antagonist activity of a test compound, the above procedure is followed except on day 3, 5µL of 1 mg/mL of somatostatin, S-14, is added to each plate, before applying the test compound. If the test compound is an antagonist of somatostatin, then a zone of no growth will appear within the cell growth zone. This zone of no growth is measured and the test compound is given an antagonist rating on a scale of 1-5 wherein 1 is minimum antagonist activity and 5 is maximum antagonist activity.
The results are shown in Table I. When no activity is observed, the result is indicated by a dash.
• 1) Inoculate 2 mL SCD-ura-trp liquid medium in Falcon 2051 tube with a single colony taken from a plate containing LY364 (MATa ura3-52 leu2 his3 trp1 lys2 ade2 far1:: LYS2 fus1:: FUS1-HIS3 gpal::hisG sst2::ADE2 bearing the SSTR2 expression plasmid, pJH2, and the G protein expression plasmid, pLP82)cells. • 2) Incubate overnight in a roller drum at 30°C.
Day 2. • 1) Harvest the cells by centrifugation (3 krpm, 5 min, room temp). • 2) Re-suspend with 5 mL of sterile water. • 3) Harvest again by centrifugation. • 4) Re-suspend in 5 mL SCL-ura-trp liquid medium. • 5) Incubate for 6 hours in a roller drum at 30°C. • 6) Harvest the cells again by centrifugation. • 7) Re-suspend in 5 mL SCG-ura-trp liquid medium. • 8) Incubate overnight in a roller drum at 30°C.
Day 3. • 1) Autoclave SCG-ura-trp-his pH 6.8 agar medium. • 2) Cool to 55°C in water bath. • 3) Add 1 mL of LY364 culture to 1 liter of agar medium. • 4) Stir vigorously for 1 min. • 5) Pour 150 mL each into five 500 cm^2 plates. • 6) Allow to cool on level surface. • 7) Apply test compound.
On day 3, add 5µL 1 mg/mL S-14 to each plate. Day 5. Begin checking plates for growth around applied compounds. Day 7. Growth in response to somatostatin should be readily observable. Rate extent of growth or inhibition of growth according to rating scale described hereinabove.

SSTR2 = SSTR2 (Rattus norvegicus, UniProt P30680); experiment: Cyclic AMP accumulation in intact cells (adrenal binding protein method); type: cell-based; settings: forskalin stimulated c-AMP levels in intact cells, 15 minutes at 37°C; read-out: % IA (% intrinsic activity)
Description: Cyclic AMP accumulation assays are used to determine the functional coupling of somatostatin receptors to effectors. All five cloned somatostatin receptors inhibit cyclic AMP accumulation and adenylyl cyclone activity ^1 ^,2,3,4,5. This evaluation measures cyclic AMP accumulation from intact cells using the adrenal binding protein method. Signal transduction by somatostatin is mediated by lowering intracellular c-AMP levels. This functional assay measures the ability of the test compound to inhibit the effect of somatostatin on forskalin stimulated c-AMP levels. ^1 K. Yasuda, S. Rens-Damiano, C. D. Breder, S. F. Law, C. B. Saper, T. Reisine and G. I. Bell, J. Biol. Chem. 267,20422-20428 (1992). ^2 J. F. Bruno, Y. Xu, J. Song and M. Berelowitz, Proc. Natl. Acad. Sci. USA 89, 11151-11155 (1992). ^3 A. M. O'Carrol, S. J. Lolait, M. König and L. Mahan, Mol. Pharmacol. 42, 939-946 (1992). ^4 J. R. Hadcock, J. Strnad and C. M. Eppler, Mol. Pharmacol. 45, 410-416 (1994). ^5 J. Strnad, C. M. Eppler, M. Corbett and J. R. Hadcock, Biochem. Biophys. Res. Commun.191, 968-976 (1993).
Bovine adrenal gland extracts are prepared according to the method of Brown et al^6 with minor modifications. […] Two-four adrenals are thawed and the cortices are separated on ice: chopped into small pieces; resuspended in 1.5 volumes of buffer containing 0.25 M sucrose, 50 mM Tris-HCl pH 7.4, 25 mM KCl, 5 mM MgCl2 and protease inhibitors (5 µg/ml leupeptin, 5µg/ml aprotinin, 100 µg/ml bacitracin, and 100 µg/ml benzamidine; homogenized with a Polytron and centrifuged for 5 minutes. The resultant supernatant is saved and centrifuged for 15 minutes. This resultant supernatant is saved and stored as 1 mL aliquots at -80°C. Four adrenals glands are usually sufficient to prepare 30-50 one mL aliquots. Each preparation is tested with standards at different dilutions before use in the following experiment. ^6 B. L. Brown, J. D. M. Albano, R. P. Ekins and A. M. Sgherzi, Biochem. J. 121, 561-562 (1971).
Somatostatin-mediated inhibition of cyclic AMP accumulation is measured in intact cells co-incubated with the diterpene forskalin (5 µM) which activates adenylyl cyclase directly and stimulates cyclic AMP accumulation in cells. The medium is aspirated from two 100 mm plates of cells, a 5 mL portion of phosphate-buffered saline containing 2 mM EDTA is added to each plate. The cells are washed off the plate, without scraping. The cells are then pelleted and resuspended in Kreb's Ringers Phosphate (KRP) containing 2 mM CaCl2 (added fresh), washed once and resuspended in 2 ml of KRP with a CaCl2 containing 100 µM IBMX. The cells are counted and the concentration of cells is adjusted to 50,000/70 µl and incubated 15 minutes at room temperature before starting the assay.
Polypropylene tubes (12 x 75) are labelled (test samples are done in triplicate including controls). Test samples are prepared containing the following: no added peptide sample (basal), forskalin alone (10 µM final), and forskalin plus various amounts of S-14 (1 X 10^-10M to 1 X 10^-6M, final). The first two steps are done on the bench top. Volumes are adjusted with KRP and 10 µl 1 mM IBMX is added to each tube. The tubes are placed in a shaking 37°C water bath and 70 µl cells is added at 15 second intervals until final volume/tube is 100 µL (concentration of cells is 25-100,000/tube). The tubes are incubated for 15 minutes at 37°C, treated with 10 µl of 1.0 N HCl at 10 second intervals and transfered to an ice bath for 3 minutes (tubes may be stored overnight). The samples are neutralized with […] 1.0 N NaOH containing 250 mM Tris, pH 7.4.
The test tube racks are placed half way down in a large chest of ice. A 50µl portion of cyclic AMP standard (Sigma) is aliquoted to each tube in triplicate (e.g. 0, 0.5, 1.0, 2.0, 4.0, 8.0, 16.0 pmoles/tube), then 70µl KRP is added to each tube of standard. One set of tubes containing 220 µl KRP is set up for the background. […]

Sequence of SSTR2 (P30680 whole entry): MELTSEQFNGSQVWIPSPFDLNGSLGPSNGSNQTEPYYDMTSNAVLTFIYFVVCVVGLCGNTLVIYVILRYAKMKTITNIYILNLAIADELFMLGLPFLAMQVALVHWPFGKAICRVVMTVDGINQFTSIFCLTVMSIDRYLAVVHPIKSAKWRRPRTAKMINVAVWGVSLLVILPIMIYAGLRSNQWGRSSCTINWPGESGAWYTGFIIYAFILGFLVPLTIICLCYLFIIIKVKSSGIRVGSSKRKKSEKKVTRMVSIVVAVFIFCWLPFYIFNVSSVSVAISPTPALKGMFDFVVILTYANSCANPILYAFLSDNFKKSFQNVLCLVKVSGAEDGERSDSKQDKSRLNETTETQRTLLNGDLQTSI
T1 sequence (P30680 whole entry): as above

Which “Yeast Assay Antagonist” value [1] does the source give for `C[C@@H](O)[C@@H]1NC(=O)[C@H](CCCCN)NC(=O)[C@@H](Cc2c[nH]c3ccccc23)NC(=O)[C@H](Cc2ccc(O)cc2)NC(=O)[C@H](NC(=O)[C@@H](N)Cc2ccc([N+](=O)[O-])cc2)CSSC[C@@H](C(=O)N[C@H](Cc2ccc(O)cc2)C(N)=O)NC1=O` here?
The value was 4.

And the Emax (SSTR2)?
The Emax was 12%.

For `C[C@@H](O)[C@@H]1NC(=O)[C@H](CCCCN)NC(=O)[C@@H](Cc2c[nH]c3ccccc23)NC(=O)[C@H](Cc2ccc(O)cc2)NC(=O)[C@H](NC(=O)[C@@H](N)Cc2ccc([N+](=O)[O-])cc2)CSSC[C@@H](C(=O)N[C@@H](Cc2ccc(O)cc2)C(N)=O)NC1=O`, which “Yeast Assay Antagonist” value [1] is on record?
The value was 5.

And the Emax (SSTR2)?
The Emax was 5%.

With `CC(=O)N[C@@H](Cc1ccc([N+](=O)[O-])cc1)C(=O)N[C@@H]1CSSC[C@@H](C(=O)N[C@H](Cc2ccc(O)cc2)C(N)=O)NC(=O)[C@H]([C@@H](C)O)NC(=O)[C@H](CCCCN)NC(=O)[C@@H](Cc2c[nH]c3ccccc23)NC(=O)[C@H](Cc2ccc(O)cc2)NC1=O` as the compound, how does the “Yeast Assay Antagonist” value [1] read?
The value was 4.

What about the Emax (SSTR2) of the same compound?
The Emax was -3%.

How did the “Yeast Assay Antagonist” value [1] turn out when `CC(=O)N[C@@H](Cc1ccc2ccccc2c1)C(=O)N[C@@H]1CSSC[C@@H](C(=O)N[C@@H](Cc2ccc(O)cc2)C(N)=O)NC(=O)[C@H]([C@@H](C)O)NC(=O)[C@H](CCCCN)NC(=O)[C@@H](Cc2c[nH]c3ccccc23)NC(=O)[C@H](Cc2ccc(O)cc2)NC1=O` (Ac-[2Nal][dC]Y[dW]KTCY-NH2; disulfide 2-7 (inferred)) was run?
The value was 1.

What about the Emax (SSTR2) of the same compound?
Its Emax is -26%.

Which results are given for `CC(C)[C@@H]1NC(=O)[C@H](CCCCN)NC(=O)[C@@H](Cc2c[nH]c3ccccc23)NC(=O)[C@H](Cc2ccc(O)cc2)NC(=O)[C@H](NC(=O)[C@@H](N)Cc2ccc3ccccc3c2)CSSC[C@@H](C(=O)N[C@@H](Cc2ccc(O)cc2)C(N)=O)NC1=O` (H-[2Nal][dC]Y[dW]KVCY-NH2; disulfide 2-7; N-terminus assumed)?
Yeast Assay Antagonist [1]: 3; Emax (SSTR2): 13%

With `CN[C@@H](Cc1ccc([N+](=O)[O-])cc1)C(=O)N[C@@H]1CSSC[C@@H](C(=O)N[C@@H](Cc2ccc(O)cc2)C(N)=O)NC(=O)[C@H](C(C)C)NC(=O)[C@H](CCCCN)NC(=O)[C@@H](Cc2c[nH]c3ccccc23)NC(=O)[C@H](Cc2ccc(O)cc2)NC1=O` (H-[NMePhe(4-NO2)][dC]Y[dW]KVCY-NH2; disulfide 2-7 (inferred)) as the compound, how does the “Yeast Assay Antagonist” value [1] read?
The value was 5.

And the Emax (SSTR2)?
Its Emax is 9%.

What does the source list for `CC(C)[C@@H]1NC(=O)[C@H](CCCCN)NC(=O)[C@@H](Cc2c[nH]c3ccccc23)NC(=O)[C@H](Cc2ccc(O)cc2)NC(=O)[C@H](NC(=O)[C@@H](N)Cc2ccc([N+](=O)[O-])cc2)CSSC[C@@H](C(=O)N[C@@H](Cc2ccc(O)cc2)C(N)=O)NC1=O` (H-[Phe(4-NO2)][dC]Y[dW]KVCY-NH2; disulfide 2-7 (inferred))?
Yeast Assay Antagonist [1]: 5; Emax (SSTR2): 11%

What does the source list for `CC(C)[C@@H]1NC(=O)[C@H](CCCCN)NC(=O)[C@@H](Cc2c[nH]c3ccccc23)NC(=O)[C@H](Cc2ccc(O)cc2)NC(=O)[C@H](NC(=O)[C@@H](N)Cc2ccc([N+](=O)[O-])cc2)CSSC[C@@H](C(=O)N[C@@H](Cc2ccc3ccccc3c2)C(N)=O)NC1=O` (H-[Phe(4-NO2)][dC]Y[dW]KVC[2Nal]-NH2; disulfide 2-7 (inferred))?
Yeast Assay Antagonist [1]: 2; Emax (SSTR2): 8%

For `CC[C@@H]1NC(=O)[C@H](CCCCN)NC(=O)[C@@H](Cc2c[nH]c3ccccc23)NC(=O)[C@H](Cc2ccc(O)cc2)NC(=O)[C@H](NC(=O)[C@@H](N)Cc2ccc([N+](=O)[O-])cc2)CSSC[C@@H](C(=O)N[C@@H](Cc2ccc(O)cc2)C(N)=O)NC1=O` (H-[Phe(4-NO2)][dC]Y[dW]K[Abu]CY-NH2; disulfide 2-7 (inferred)), which “Yeast Assay Antagonist” value [1] is on record?
The value was 3.

And the Emax (SSTR2)?
Its Emax is 21%.

Which results are given for `CC(C)[C@@H]1NC(=O)[C@H](CCCCN)NC(=O)[C@@H](Cc2c[nH]c3ccccc23)NC(=O)[C@H](Cc2ccc(O)cc2)NC(=O)[C@H](NC(=O)[C@H](N)Cc2ccc3ccccc3c2)CSSC[C@@H](C(=O)N[C@@H](Cc2ccc(O)cc2)C(N)=O)NC1=O` (H-[d2Nal][dC]Y[dW]KVCY-NH2; disulfide 2-7)?
Yeast Assay Antagonist [1]: 2; Emax (SSTR2): 8%
